{"source": "patent US8242086B2", "about": "“Methods and compositions for treating disorders caused by a deficiency in a gene product of a CLN gene” (Duke University, priority 2008, dated 2012)", "key": {"wild-type CLN3p": {"molecular_target": "T1, wild-type CLN3p (Homo sapiens, UniProt Q13286)", "T1 construct": "expressed in transfected cells; host or cells: fibroblasts overexpressing CLN3p (AC1 cells)", "T1 sequence (Q13286 1-438)": "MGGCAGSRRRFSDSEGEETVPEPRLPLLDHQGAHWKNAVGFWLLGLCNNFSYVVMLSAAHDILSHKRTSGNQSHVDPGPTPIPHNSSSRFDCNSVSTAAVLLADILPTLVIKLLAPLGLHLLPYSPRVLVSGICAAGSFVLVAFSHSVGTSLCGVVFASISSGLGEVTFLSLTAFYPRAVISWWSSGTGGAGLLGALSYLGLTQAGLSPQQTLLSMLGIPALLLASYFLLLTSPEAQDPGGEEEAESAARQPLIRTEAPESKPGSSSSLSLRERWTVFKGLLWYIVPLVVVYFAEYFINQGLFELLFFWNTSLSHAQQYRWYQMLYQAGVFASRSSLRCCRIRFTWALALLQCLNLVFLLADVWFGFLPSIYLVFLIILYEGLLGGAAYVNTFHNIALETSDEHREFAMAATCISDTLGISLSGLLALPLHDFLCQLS", "assay": "Protein-lipid overlay assay, wild-type CLN3p", "assay_type": "binding", "procedure": "Protein-lipid overlay assay. Membrane arrays (SPHINGOSTRIPS (Echelon Research Laboratories, Salt Lake City, Utah), or lipids were spotted on nitrocellulose membranes and dried for at least one hour. Membranes were blocked with 3% (wt/vol) Fatty Acid Free or FFA-BSA (Sigma-Aldrich, St. Louis, Mo.) in Tris-Buffered Saline Tween-20 (TBST) [150 mM NaCl/10 mM Tris.HCl (pH 8.0), and 0.1% (vol/vol) Tween-20] for 1 h at RT. Blocked membranes were incubated for 8 h at 4° C. with 2 mg/ml of total cell lysate.\nFibroblasts overexpressing CLN3p (AC1 cells) and JNCL fibroblasts were used for the GalCer-CLN3 binding assay. The membranes were then washed five times for 5 min each with TBST. After washing, membranes were incubated with anti-CLN3, CLN1, CLN2, CLN6 or CLN8-antibodies overnight at 1:1000 dilution, followed by additional washing and incubation with horseradish peroxidase-conjugated anti-rabbit IgG goat antibody for 1 h at RT. After a final washing, enhanced chemiluminescence was used to detect binding of NCL proteins to sphingolipids. Intensity values were computed with an ImageJ software program.\nBinding of CLN3 to GalCer and sulfatide. Membranes impregnated with sphingolipids were overlaid with protein cell lysates from CLN3-overexpressing and JNCL cells. Anti-CLN3 antibody was used to evaluate binding. […] The signal for GalCer-wild-type CLN3p binding was weaker because the more polar sulfatide competes with the less polar GalCer for binding to wild-type CLN3p."}, "[1]": {"test_system": "galactosylceramide transferase (GCT)", "conditions": "exogenous supplementation of GalCer; Rusyn E et al., 2008; cited from earlier work"}, "[2]": {"assay": "Intraperitoneal GalCer injection of normal mice, GalCer mass in kidney subcellular fractions (TLC)", "assay_type": "in vivo, mouse", "conditions": "intraperitoneal injection (α-GalCer), two days prior to sacrifice", "text": "Mouse experiments. Six homozygous Cln3^Δex7/8 adult 60 day old mice and six age and sex-matched control mice were deeply anesthetized by xylazine/ketamine and sacrificed by cardiac perfusion of ice-cold phosphate-buffered saline (PBS, pH 7.4), followed by periodate-lysine-phosphate (PLP) fixative (2% paraformaldehyde, 0.01M sodium periodate and 0.1M lysine phosphate buffer, pH 7.4). Mouse brains were snap-frozen in liquid nitrogen. Three of the frozen brains from each group were used for subcellular fractionation and thin layer chromatography, and frozen sections were obtained for fluorescence immunocytochemistry from the rest. At the age of 60 days and two days prior to sacrifice, three of six control mice were injected with α-GalCer at a dose of […] or vehicle intraperitoneally. They were deeply anesthetized by xylazine/ketamine and sacrificed by cardiac perfusion of ice-cold phosphate-buffered saline (PBS, pH 7.4), followed by periodate-lysine-phosphate (PLP) fixative (2% paraformaldehyde, 0.01M sodium periodate and 0.1M lysine phosphate buffer, pH 7.4). […]\nThin Layer Chromatography for Quantification of Galactosylceramide. […] Lipid quantification was accomplished with ImageQuant™ program and normalized with respect to phosphate content."}}, "note": "“Also recorded” adds a separate entry of the source.", "data": [{"substance": "galactosylceramide [GalCer]", "values": [{"measurement": "binding of wild-type CLN3p to membrane spots impregnated with the lipid", "setting": "wild-type CLN3p; lysate of CLN3-overexpressing cells, anti-CLN3 antibody", "value": "bind strongly"}, {"measurement": "binding of CLN3p to GalCer when sulfatide was omitted from the membrane", "setting": "wild-type CLN3p; sulfatide omitted, dose dependent", "value": "stronger binding"}, {"measurement": "growth defect and increased apoptosis of GalCer synthase knockdown lymphoblasts", "setting": "[1]", "value": "remedied"}, {"measurement": "kidney Golgi GalCer", "setting": "[2]", "value": "concomitant reduction in Golgi GalCer; also recorded: concomitant drop in Golgi GalCer"}, {"measurement": "kidney lipid raft (plasma membrane) GalCer", "setting": "[2]", "value": "increase GalCer at the plasma membrane; also recorded: increases kidney lipid raft GalCer"}]}]}
